In patent US20230257376A1, “ROCK INHIBITOR, AND PREPARATION METHOD THEREFOR AND USE THEREOF” (WUHAN LL SCIENCE AND TECHNOLOGY DEVELOPMENT CO., LTD., priority 2020, published 2023):

Legend:
[1] = In vitro cytotoxicity assay in HepG2 cells using the CCK-8 method; assay type: cell-based; conditions: human
Method: In vitro cytotoxicity assay for the compounds disclosed herein was performed in HepG2 cells using the CCK-8 method. HepG2 cells (Beina Bio) in the logarithmic growth phase were collected, the concentration of cell suspension was adjusted, and then the cells were plated on a 96-well cell culture plate at 50,000 cells/well. The cells were then incubated overnight in a cell incubator (5%, 37° C.), and after 80-90% cell confluence was achieved, test compound at each concentration gradient or vehicle (DMSO) was added after medium change. The resulting mixture was incubated in the cell incubator (5%, 37° C.) for 48 h. After the treatment, the medium in the plate was discarded. The plate was washed twice with PBS, added with CCK-8 working solution (Beyotime) at 100 μL per well, and then incubated at 37° C. for 1.5 h in the dark. Absorbance at OD450 nm mil was measured for each well on a microplate reader, and CC50 value of each compound was analyzed and calculated.

[2] = In vivo pharmacokinetic study in mice; conditions: mouse, plasma; for bioavailability: 1 mg/kg Po (fasted) vs 1 mg/kg Iv; for AUC(0-t) / Cmax: 1 mg/kg
Text: […] After administration, plasma of mice was collected at specific time points, and the concentration of the compound in the plasma was detected by LC-MS/MS (AB SCIEX Qtrap4500). The PK parameters of the compounds were statistically analyzed and calculated (WinNonlin V5.2, Pharsight) to show the pharmacokinetic properties of the compounds disclosed herein in mice.

[3] = target: T1, ROCK2 kinase (Homo sapiens, UniProt O75116); assay: In vitro evaluation of ROCK2 kinase activity (HTRF KinEASE-STK time-resolved fluorometric assay); assay type: biochemical; conditions: ROCK2 kinase 0.4 ng/μL, ATP 6.739 μM
T1 construct: purchased Invitrogen PV3759
Outline: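 Recombinant kinase (0.4 ng/μL final) preincubated 0.5 h at RT with compound (1% DMSO), then 2 h with 6.739 μM ATP and 1 μM biotinylated STK substrate 2 (final). HTRF readout via STK antibody-cryptate/streptavidin-XL665 after ~1 h; buffer 5 mM MgCl2, 1 mM DTT.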

[4] = In vitro metabolic stability, human liver microsome incubation; assay type: in vitro ADME; conditions: liver microsomes, 1 mg/mL protein, 37° C., read-out: T1/2 in human liver microsome
Method: (§1) The in vitro metabolic stability of the compounds disclosed herein was determined through incubation of liver microsomes of various species. A proper amount of test compound was added into a liver microsome reaction system (1 mg/mL liver microsome protein, 25 U/mL glucose-6 phosphate dehydrogenase, 1 mM NADP, 6 mM D-glucose 6-phosphate and 5 mM MgCl2), and then the mixture was incubated in a water bath kettle at 37° C. to start reaction. At each time point, 100 μL of the reaction liquid was added into a centrifuge tube containing 400 μL of internal standard working solution (containing a 200 ng/mL solution of dexamethasone, diclofenac, tolbutamide and labetalol in acetonitrile) precooled at 0° C. so as to stop the reaction, and the mixture was then centrifuged at 10,000 g for 10 min at 4° C. The supernatant was collected for LC-MS assay so as to obtain the values of in vitro metabolic half-life of the test compounds in liver microsomes of various species.

[5] = In vitro metabolic stability, guinea pig liver microsome incubation; assay type: in vitro ADME; conditions: liver microsomes, 1 mg/mL protein, 37° C., read-out: T1/2 in guinea pig liver microsome
Method: as §1

[6] = In vitro metabolic stability, rat liver microsome incubation; assay type: in vitro ADME; conditions: liver microsomes, 1 mg/mL protein, 37° C., read-out: T1/2 in rat liver microsome
Method: as §1

[7] = target: T2, ROCK1 kinase (Homo sapiens, UniProt Q13464); assay: In vitro evaluation of ROCK1 kinase selectivity (HTRF KinEASE-STK time-resolved fluorometric assay); assay type: biochemical; conditions: ROCK1 kinase 0.4 ng/μL, ATP 3.53 μM
T2 construct: purchased Invitrogen
Outline: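 HTRF KinEASE-STK assay with ROCK1 at 0.4 ng/μL final, preincubated with compound (1% DMSO) 0.5 h at room temperature. Reaction ran 2 h at room temperature with 3.53 μM ATP and 1 μM biotinylated STK-substrate 2, then detection via STK antibody-cryptate/streptavidin-XL665 after ~1 h.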

T2 sequence (Q13464 whole entry): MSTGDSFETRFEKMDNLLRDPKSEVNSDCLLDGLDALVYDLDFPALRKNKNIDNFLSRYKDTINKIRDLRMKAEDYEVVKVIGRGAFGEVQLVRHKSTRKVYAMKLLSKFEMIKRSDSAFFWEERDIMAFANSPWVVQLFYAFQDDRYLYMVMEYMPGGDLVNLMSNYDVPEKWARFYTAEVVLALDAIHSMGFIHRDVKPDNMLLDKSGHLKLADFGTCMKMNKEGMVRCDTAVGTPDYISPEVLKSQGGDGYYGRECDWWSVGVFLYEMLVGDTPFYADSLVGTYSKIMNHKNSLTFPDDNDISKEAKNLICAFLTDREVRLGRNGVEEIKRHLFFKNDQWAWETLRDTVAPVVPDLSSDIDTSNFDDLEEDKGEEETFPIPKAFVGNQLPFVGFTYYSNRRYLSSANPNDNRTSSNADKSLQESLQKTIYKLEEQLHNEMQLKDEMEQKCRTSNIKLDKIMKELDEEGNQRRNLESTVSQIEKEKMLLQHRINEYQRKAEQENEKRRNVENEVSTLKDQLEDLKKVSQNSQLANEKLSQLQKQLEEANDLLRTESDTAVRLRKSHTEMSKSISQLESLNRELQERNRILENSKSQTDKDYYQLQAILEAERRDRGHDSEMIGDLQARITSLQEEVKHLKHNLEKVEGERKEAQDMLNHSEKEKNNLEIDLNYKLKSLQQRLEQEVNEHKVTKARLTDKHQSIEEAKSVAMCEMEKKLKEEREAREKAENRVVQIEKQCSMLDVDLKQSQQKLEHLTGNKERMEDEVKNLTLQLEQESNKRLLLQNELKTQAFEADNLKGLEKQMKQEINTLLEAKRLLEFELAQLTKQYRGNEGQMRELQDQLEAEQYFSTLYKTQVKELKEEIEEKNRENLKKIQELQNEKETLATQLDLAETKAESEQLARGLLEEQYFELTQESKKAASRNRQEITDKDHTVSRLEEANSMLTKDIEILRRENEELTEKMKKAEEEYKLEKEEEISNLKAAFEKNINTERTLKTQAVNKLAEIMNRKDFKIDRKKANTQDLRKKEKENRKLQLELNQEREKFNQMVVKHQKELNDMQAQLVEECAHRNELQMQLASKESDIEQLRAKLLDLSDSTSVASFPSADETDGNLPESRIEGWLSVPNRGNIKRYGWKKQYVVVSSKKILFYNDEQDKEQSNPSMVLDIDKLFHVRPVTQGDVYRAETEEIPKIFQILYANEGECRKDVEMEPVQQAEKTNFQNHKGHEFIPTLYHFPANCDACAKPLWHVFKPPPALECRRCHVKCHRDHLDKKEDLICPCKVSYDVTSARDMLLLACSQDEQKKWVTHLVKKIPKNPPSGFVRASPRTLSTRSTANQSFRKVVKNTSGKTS
T1 sequence (O75116 whole entry): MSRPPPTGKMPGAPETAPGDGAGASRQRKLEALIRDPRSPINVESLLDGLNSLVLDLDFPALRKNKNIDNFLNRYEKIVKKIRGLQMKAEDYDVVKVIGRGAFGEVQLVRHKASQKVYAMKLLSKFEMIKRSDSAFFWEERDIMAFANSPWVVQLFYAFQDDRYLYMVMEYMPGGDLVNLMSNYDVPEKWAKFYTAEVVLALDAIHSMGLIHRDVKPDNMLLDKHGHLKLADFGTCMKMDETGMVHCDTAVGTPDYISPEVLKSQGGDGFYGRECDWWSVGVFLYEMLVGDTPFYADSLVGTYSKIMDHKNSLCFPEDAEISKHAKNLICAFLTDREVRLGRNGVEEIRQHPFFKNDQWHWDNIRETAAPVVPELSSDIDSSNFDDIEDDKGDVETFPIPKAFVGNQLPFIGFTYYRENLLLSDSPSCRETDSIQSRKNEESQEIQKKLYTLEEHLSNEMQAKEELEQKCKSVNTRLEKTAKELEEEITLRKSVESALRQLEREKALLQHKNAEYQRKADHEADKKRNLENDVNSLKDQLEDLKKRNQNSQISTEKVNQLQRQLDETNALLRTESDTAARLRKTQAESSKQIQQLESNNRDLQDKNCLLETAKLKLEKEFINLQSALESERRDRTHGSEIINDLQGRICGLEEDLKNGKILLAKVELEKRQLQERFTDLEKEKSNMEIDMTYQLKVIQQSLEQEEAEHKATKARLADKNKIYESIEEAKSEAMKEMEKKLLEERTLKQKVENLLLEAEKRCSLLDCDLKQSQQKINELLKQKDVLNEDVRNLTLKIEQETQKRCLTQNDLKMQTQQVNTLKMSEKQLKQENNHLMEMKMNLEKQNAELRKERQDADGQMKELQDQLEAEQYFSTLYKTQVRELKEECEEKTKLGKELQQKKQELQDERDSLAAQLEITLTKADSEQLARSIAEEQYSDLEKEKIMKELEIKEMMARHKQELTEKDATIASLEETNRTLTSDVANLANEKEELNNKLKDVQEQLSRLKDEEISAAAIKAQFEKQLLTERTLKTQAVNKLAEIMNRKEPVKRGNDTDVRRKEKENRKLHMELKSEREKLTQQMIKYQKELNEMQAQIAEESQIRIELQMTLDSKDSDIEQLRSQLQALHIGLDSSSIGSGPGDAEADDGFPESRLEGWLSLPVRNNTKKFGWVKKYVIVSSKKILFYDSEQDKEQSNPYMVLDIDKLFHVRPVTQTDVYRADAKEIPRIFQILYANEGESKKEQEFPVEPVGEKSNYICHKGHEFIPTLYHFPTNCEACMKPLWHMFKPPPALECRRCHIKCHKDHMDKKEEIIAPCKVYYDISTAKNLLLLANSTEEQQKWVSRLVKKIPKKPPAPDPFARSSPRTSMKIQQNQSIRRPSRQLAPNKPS

Row | bioavailability [2] | AUC(0-t) ([2]; Iv) | Cmax ([2]; Iv) | AUC(0-t) ([2]; Po (fasted)) | Cmax ([2]; Po (fasted)) | IC50 [3] | half-life [4] | half-life [5] | half-life [6] | IC50 [7] | SMILES | CC50 at 48 h [1]
1 | 30.6% | 726 ng·h/mL | 1120 ng/mL | 225 ng·h/mL | 60 ng/mL | 0.05 to 0.5 µM | 3.46 h | 0.969 h | 2.64 h | > 4.5 µM | Cn1c(C(=O)N2CC(F)(F)C2)cc2c1CN(c1nc(F)cc(Nc3ccc(-c4cn[nH]c4)cc3)n1)CC2 [Compound L030, (6-(4-((4-(1H-pyrazol-4-yl)phenyl)amino)-6-fluoropyrimidin-2-yl)-1-methyl-4,5,6,7-tetrahydro-1H-pyrrolo[2,3-c]pyridin-2-yl)(3,3-difluoroazetidin-1-yl)methanone] | > 100 µM
2 | 59.9% | 349 ng·h/mL | 473 ng/mL | 209 ng·h/mL | 98.7 ng/mL | 0.05 to 0.5 µM | 2.97 h | 1.25 h | 1.57 h | > 4.5 µM | Cn1c(C(=O)N2CC(F)(F)C2)cc2c1CN(c1ncnc(Nc3ccc(-c4cn[nH]c4)cc3)n1)CC2 [Compound L036, (6-(4-((4-(1H-pyrazol-4-yl)phenyl)amino)-1,3,5-triazin-2-yl)-1-methyl-4,5,6,7-tetrahydro-1H-pyrrolo(2,3-c)pyridin-2-yl)(3,3-difluoroazetidin-1-yl)methanone] | > 100 µM
3 | 54.8% | 787 ng·h/mL | 594 ng/mL | 431 ng·h/mL | 109 ng/mL | 0.05 to 0.5 µM | 7.32 h | 2.83 h | 3.49 h | – | Cc1nc(Nc2ccc(-c3cn[nH]c3)cc2)nc(N2CCc3cc(C(=O)N4CC(F)(F)C4)n(C)c3C2)n1 [Compound L044] | 58.1 µM
4 | 54% | 266 ng·h/mL | 463 ng/mL | 144 ng·h/mL | 64.5 ng/mL | ≤ 0.05 µM | 1.59 h | 0.969 h | 1.16 h | > 4.5 µM | Cn1c(C(=O)N2CC(C(F)F)C2)cc2c1CN(c1nccc(Nc3ccc(-c4cn[nH]c4)cc3)n1)CC2 [Compound L060, (6-(4-((4-(1H-pyrazol-4-yl)phenyl)amino)pyrimidin-2-yl)-1-methyl-4,5,6,7-tetrahydro-1H-pyrrolo[2,3-c]pyridin-2-yl)(3-(difluoromethyl)azetidin-1-yl)methanone] | > 100 µM

More lines, now with the values behind:

Row | SMILES | bioavailability [2] | AUC(0-t) ([2]; Iv) | Cmax ([2]; Iv) | AUC(0-t) ([2]; Po (fasted)) | Cmax ([2]; Po (fasted)) | IC50 [3] | half-life [4] | half-life [5] | half-life [6] | IC50 [7] | CC50 at 48 h [1]
5 | Cn1c(C(=O)N2CC(F)(F)C2)cc2c1CN(c1nccc(Nc3ccc(-c4cn[nH]c4)cc3)n1)CC2 [Compound L005, (6-(4-((4-(1H-pyrazol-4-yl)phenyl)amino)pyrimidin-2-yl)-1-methyl-4,5,6,7-tetrahydro-1H-pyrrolo[2,3-c]pyridin-2-yl)(3,3-difluoroazetidin-1-yl)methanone] | 59.7% | 120 ng·h/mL | 155 ng/mL | 71.8 ng·h/mL | 37.2 ng/mL | ≤ 0.05 µM | 2.92 h | 1.08 h | 1.72 h | > 4.5 µM | > 100 µM
6 | Cn1c(C(=O)NCC(F)(F)F)cc2c1CN(c1nccc(Nc3ccc(-c4cn[nH]c4)cc3)n1)CC2 [Compound L017, 6-(4-((4-(1H-pyrazol-4-yl)phenyl)amino)pyrimidin-2-yl)-1-methyl-N-(2,2,2-trifluoroethyl)-4,5,6,7-tetrahydro-1H-pyrrolo[2,3-c]pyridine-2-carboxamide] | 12.2% | 872 ng·h/mL | 2570 ng/mL | 106 ng·h/mL | 41.3 ng/mL | ≤ 0.05 µM | 3.11 h | 0.751 h | 1.21 h | > 4.5 µM | 33.4 µM
7 | Cn1c(C(=O)N2CC(F)(F)C2)cc2c1CN(c1ncc(F)c(Nc3ccc(-c4cn[nH]c4)cc3)n1)CC2 [Compound L027, (6-(4-((4-(1H-pyrazol-4-yl)phenyl)amino)-5-fluoropyrimidin-2-yl)-1-methyl-4,5,6,7-tetrahydro-1H-pyrrolo[2,3-c]pyridin-2-yl)(3,3-difluoroazetidin-1-yl)methanone] | 82.7% | 412 ng·h/mL | 517 ng/mL | 341 ng·h/mL | 116 ng/mL | ≤ 0.05 µM | 0.956 h | 10.3 h | 2.11 h | > 4.5 µM | > 100 µM
